Assay results published in PubChem BioAssay (NCI).
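These data come from cells grown in 96-well plates and exposed to compound for 48 hours at five concentrations. TGI denotes the concentration required for complete inhibition of growth.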

Assays:
Assay in all cases: growth of human tumour cells (NCI), 48 h
[1] = test system: HCC-2998 colon
[2] = test system: KM20L2 colon
[3] = test system: LOX IMVI melanoma
[4] = test system: LXFL 529 NSCLC
[5] = test system: M19-MEL melanoma
[6] = test system: OVCAR-4 ovarian
[7] = test system: RXF-631 renal
[8] = test system: DU-145 prostate
[9] = test system: HCT-116 colon
[10] = test system: HS 578T breast
[11] = test system: RPMI-8226 leukemia
[12] = test system: U251 CNS
[13] = test system: SNB-78 CNS

Row | SMILES | TGI [1] [µM] | TGI [2] [µM] | TGI [3] [µM] | TGI [4] [µM] | TGI [5] [µM] | TGI [6] [µM] | TGI [7] [µM] | TGI [8] [µM] | TGI [9] [µM] | TGI [10] [µM] | TGI [11] [µM] | TGI [12] [µM] | TGI [13] [µM]
1 | CC(C)(C)N/N=C(\C(=O)Nc1cccc(Cl)c1)C1C(=O)Nc2ccccc2S1=O (configuration not stated) | > 100 | > 100 | > 100 | > 100 | > 100 | > 100 | > 100 |  |  |  |  |  | 
2 | CCOP(=O)(CCCC(O)CNc1nc(N)nc(Cl)c1N=Nc1ccc(Cl)cc1)OCC (configuration not stated) | 30.6 |  | 13.8 |  |  | 17.6 |  | 18.2 | 21.7 | 30.3 | 8.23 | 22.7 | 
3 | COc1cccc2c1C(=O)c1c(O)c3c(c(O)c1C2=O)C[C@@](O)(C(C)=O)CC3S(=O)(=O)O (some centres not stated) | > 100 | > 100 | > 100 | > 100 | > 100 | > 100 | > 100 |  | > 100 |  | > 100 | > 100 | > 100
4 | COc1ccc2c(c1)Oc1cc(O)ccc1[C@H]2c1ccccc1C(=O)NC(C)c1ccccc1 (some centres not stated) | 30.3 | 35.3 | 31.6 | 28.7 | 29.4 |  |  |  | 26.5 |  | 23.6 | 29.4 | 33.5
5 | Cc1c(C(=O)O)n2c(=S)[nH]nc2c2ccccc12 | > 100 |  | > 100 |  |  | > 100 |  | > 100 | > 100 | > 100 | > 100 | > 100 | 
6 | O=C(Cc1nc2ccc(C(=O)c3ccccc3)cc2[nH]c1=O)C(=O)Nc1nc2ccccc2[nH]1 | > 100 | > 100 | > 100 | > 100 | > 100 | > 100 | > 100 |  | > 100 |  |  |  | 
7 | CN(C)Cc1c(O)ccc2c1c1c(n2C)C(=O)c2ccccc2C1=O | 13.9 |  | 18.6 |  |  | 32.3 |  | > 100 | > 100 | > 100 | > 100 | > 100 | 
8 | Cn1cnc(N2CCCC2)c(C#N)c1=S | > 100 |  | > 100 |  |  | > 100 |  | > 100 | > 100 | > 100 | > 100 | > 100 | 
9 | CCn1c2nc(=O)n(CCCCCCCCSC(c3ccccc3)(c3ccccc3)c3ccccc3)c(=O)c-2nc2ccccc21 | 19.6 |  | > 100 |  |  | > 100 |  | > 100 | > 100 | > 100 | > 100 | > 100 | 
10 | CCC12CCCN(Cc3ccccc3)C1c1c(n(C)c3ccccc13)C(CO)C2 (configuration not stated) | 121 | 78.1 | 82 | 87.4 | 125 |  | 142 |  | 53.6 |  | 108 | 134 | 
11 | COC(C/C(=C/CO[Si](C(C)C)(C(C)C)C(C)C)C(=O)N(C(=O)OC(C)(C)C)c1ccccc1I)OC | > 100 |  | 49.8 |  |  | > 100 |  | > 100 | > 100 | > 100 | > 100 | > 100 | 
12 | CC(=O)OCC1OC(n2cnc3nc(Br)[nH]c(=O)c32)C(OC(C)=O)C1OC(C)=O (configuration not stated) | > 100 |  | > 100 |  |  | > 100 |  | > 100 | > 100 | > 100 | > 100 | > 100 | 
13 | O=c1[nH]c2ccccc2c(O)c1Cc1ccccc1 | > 100 |  | > 100 |  |  | > 100 |  | > 100 | > 100 | > 100 | > 100 | > 100 | 
14 | Cc1ccc(S(=O)(=O)N2CCC[C@@H]2C(=O)O[C@@H]2CCC3CC=CC32)cc1 (some centres not stated) | > 100 |  | 38.9 |  |  | > 100 |  | > 100 | > 100 | 87.5 | 61.3 | > 100 | 
15 | CCc1cc(C)cc2[n+]1CC=C2 | > 100 | 95.6 | > 100 | 79.2 | 52.4 | > 100 |  |  | 48.2 |  |  | > 100 | > 100
17 | Cn1c(-c2ccc[se]2)ccc1-c1ccc(C=O)[se]1 | > 53.5 |  | 30.1 |  |  | > 61.1 |  | > 100 | > 100 | > 89.9 | > 70.2 | 25.4 | 
18 | COc1cc(C2S/C(=C/c3ccccc3)C(=O)N2Cc2ccccc2)cc(OC)c1OC (configuration not stated) | 69.4 |  | > 100 |  |  | > 100 |  | > 100 | 47 | > 100 | > 100 | > 100 | 
19 | Cc1ccc(/C=C/C(=O)Oc2ccc(/C=C3\CCC/C(=C\c4ccc(OC(=O)/C=C/c5ccc(C)cc5)cc4)C3=O)cc2)cc1 | > 100 |  | > 100 |  |  | > 100 |  | > 100 | > 100 | > 100 | > 100 | > 100 | 
20 | CC(C)NC(=O)OCc1c(COC(=O)NC(C)C)c(-c2ccc[n+](COC(=O)Cc3ccccc3)c2)n2c1CCC2 | > 100 |  | > 100 |  |  | 57.8 |  | 67.7 | > 100 | > 100 | > 100 | > 100 | 
21 | Nc1nc(NCCOCP(=O)(O)O)c([N+](=O)[O-])c(=O)[nH]1 | > 100 | > 100 | > 100 | > 100 | > 100 |  |  |  | > 100 |  | > 100 | > 100 | > 100
22 | C=C(C)[C@@H](O)[C@H](O)C[C@H](C)C1CC[C@]2(C)C1=CC[C@@H]1[C@@]3(C)CC[C@@H](OC(C)=O)C(C)(C)[C@@H]3C[C@@H](OC3OC(COC(C)=O)C(O)C(O)C3O)[C@]12C (some centres not stated) | 1.69 |  | 3.31 |  |  | 9.17 |  | 11.1 | 5.88 | 10 | 4.43 | 5.86 | 
